Reference: ChEMBL document CHEMBL1201862, “PubChem BioAssay data set” (2004)
The source made the active and inactive calls.

Key:
[1] = target: Voltage-gated inwardly rectifying potassium channel KCNH2 (Homo sapiens, UniProt Q12809); assay: hERG protection from proarrhythmic block, potency, dose response, cell-based, thallium flux (AID 2121); assay type: ADME
Major prion protein = Major prion protein (Homo sapiens, UniProt P04156); assay type: functional, cell-based
[2] = THP-1 cell cytotoxicity, dose response, cytotoxicity control for Vif-APOBEC3G degradation inhibitor project, THP-1 cells (AID 1117359); assay type: functional; conditions: Human immunodeficiency virus 1, THP-1
[3] = inhibitors of clade B AD8 Env fusion, dose response, cell-based, cherry-pick (AID 652062); assay type: functional;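 note: luciferase signal from cell-cell fusion driven by HIV-1 clade B AD8 Env; potency is for inhibitors of fusion seen as a drop in luminescence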
[4] = off-target signal loss in HeLa-CEM21 co-culture – HeLa F-luc CTL cells, cherry-picked, counter-screen for HIV-1 Env fusion inhibitor project, dose response (AID 652040); assay type: functional, cell-based;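 note: potency for signal decrease marking cytotoxic or nonspecific inhibition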
Protein skinhead-1 = target: T1, Protein skinhead-1 (Caenorhabditis elegans, UniProt P34707); assay type: functional
T1 sequence (P34707 whole entry): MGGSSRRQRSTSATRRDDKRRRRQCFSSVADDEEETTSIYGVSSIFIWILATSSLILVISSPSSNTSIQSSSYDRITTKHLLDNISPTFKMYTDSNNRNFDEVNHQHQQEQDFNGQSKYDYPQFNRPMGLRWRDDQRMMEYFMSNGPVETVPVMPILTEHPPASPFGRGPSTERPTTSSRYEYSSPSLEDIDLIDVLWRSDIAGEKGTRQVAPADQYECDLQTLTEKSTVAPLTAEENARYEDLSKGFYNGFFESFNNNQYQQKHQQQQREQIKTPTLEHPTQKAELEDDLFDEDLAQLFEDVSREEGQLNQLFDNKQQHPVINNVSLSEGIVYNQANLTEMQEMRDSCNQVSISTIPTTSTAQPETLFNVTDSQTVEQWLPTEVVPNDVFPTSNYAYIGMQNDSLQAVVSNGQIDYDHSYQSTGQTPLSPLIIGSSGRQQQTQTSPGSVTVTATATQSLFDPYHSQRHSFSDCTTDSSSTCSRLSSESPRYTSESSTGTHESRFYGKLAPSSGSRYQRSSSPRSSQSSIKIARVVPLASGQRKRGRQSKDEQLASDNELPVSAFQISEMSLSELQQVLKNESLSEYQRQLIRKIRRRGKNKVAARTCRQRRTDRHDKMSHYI

[5] = MC4R antagonists, dose response, counter-screen for LGR2 antagonist project, cell-based, plate reader, cherry pick (AID 743444); assay type: functional;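 note: transfected HEK 293 cells stimulated with alpha-MSH peptide; potency of inhibitors of the alpha-MSH evoked signal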
[6] = LGR2 antagonists, dose response, cell-based, HEK293, CRE-luciferase reporter, cherry pick, set 2 (AID 743343); assay type: functional;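 note: transfected cells were stimulated with diluted bursicon conditioned medium after compound addition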
HEK293 = assay: inhibitors of LMP1-driven NF-kB reporter, dose response, cell-based, HEK293, luciferase, cherry-pick (AID 588343); assay type: functional; conditions: Homo sapiens
[7] = target: T2, Small ubiquitin-related modifier 1 (Homo sapiens, UniProt P63165); assay: inhibitors of SUMO1 peptide binding, dose response, biochemical, fluorescence polarization, uHTS hits (AID 624382); assay type: functional; conditions: read-out: IC50_Mean
[8] = target: T2, Small ubiquitin-related modifier 1; assay: inhibitors of SUMO1 partner interactions, dose response, biochemical, FRET (AID 624383); assay type: functional; conditions: read-out: IC50_Mean
[9] = target: Luciferin 4-monooxygenase (Photinus pyralis, UniProt P08659); assay: Counter Screen for Luciferase-based Assay Positives. [Related pubchem assays: 620, 618, 411 ]
HT-1080 = assay: cytotoxicity in HT1080 fibrosarcoma cells, cell-based, fluorescence readout (AID 620); assay type: functional; conditions: Homo sapiens
Kallikrein-7 = Kallikrein-7 (Homo sapiens, UniProt P49862); assay: Fluorescence Intensity-based biochemical primary high throughput dose response assay to identify activators of kallikrein-7 (K7) zymogen.
[10] = target: Heat shock protein HSP 90-alpha (Homo sapiens, UniProt P07900); assay type: functional, organism-based
[11] = target: T3, Probable nicotinate-nucleotide adenylyltransferase (Staphylococcus aureus (strain N315), UniProt P65502); assay type: functional, Staphylococcus aureus subsp. aureus N315;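 for IC50 Mean: confirmatory dose-response retesting of NadD inhibitor hits first found in an ultra-high-throughput screen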
[12] = target: T3, Probable nicotinate-nucleotide adenylyltransferase; assay type: functional, Staphylococcus aureus subsp. aureus N315; conditions: read-out: IC50_Mean
[13] = target: T4, Rac GTPase-activating protein 1 (Homo sapiens, UniProt Q9H0H5); assay: MgcRacGAP GTPase-activating activity inhibitors, confirmation, biochemical, ADP Hunter fluorescence, primary and confirmatory (AID 624330); assay type: functional
T4 sequence (Q9H0H5 whole entry): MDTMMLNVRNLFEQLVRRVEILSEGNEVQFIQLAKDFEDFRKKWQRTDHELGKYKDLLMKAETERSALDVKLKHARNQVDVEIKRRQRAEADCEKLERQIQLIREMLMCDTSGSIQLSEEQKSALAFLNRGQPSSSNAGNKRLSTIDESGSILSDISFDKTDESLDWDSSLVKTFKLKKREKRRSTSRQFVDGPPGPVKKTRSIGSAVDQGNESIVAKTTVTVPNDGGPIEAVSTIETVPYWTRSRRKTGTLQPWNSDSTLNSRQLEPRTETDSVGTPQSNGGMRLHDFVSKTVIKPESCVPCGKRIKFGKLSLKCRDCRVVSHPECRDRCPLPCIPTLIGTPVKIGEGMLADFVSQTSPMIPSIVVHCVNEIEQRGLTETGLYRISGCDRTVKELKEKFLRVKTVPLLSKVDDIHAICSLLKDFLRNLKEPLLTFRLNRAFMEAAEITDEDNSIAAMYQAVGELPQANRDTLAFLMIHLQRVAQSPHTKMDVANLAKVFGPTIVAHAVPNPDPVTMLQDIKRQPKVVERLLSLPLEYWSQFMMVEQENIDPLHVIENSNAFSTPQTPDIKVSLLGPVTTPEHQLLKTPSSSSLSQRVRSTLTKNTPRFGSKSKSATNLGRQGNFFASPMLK

[14] = HeLa cell cytotoxicity, dose response, cytotoxicity control for MgcRacGAP inhibitor project (AID 624300); assay type: functional
[15] = nonselective inhibitors of cellular cAMP signaling, dose response, counter-screen for MC4R biased antagonist project, cell-based, TR-FRET cAMP detection (AID 602305); assay type: functional;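 note: U2OS cells stimulated with forskolin near its EC80 as the cAMP inducer; potency is for inhibition of forskolin-stimulated cAMP signaling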
Melanocortin receptor 4 = Melanocortin receptor 4 (Homo sapiens, UniProt P32245); assay: MC4R antagonist potency on cAMP, dose response, cell-based, TR-FRET, biased antagonists (AID 602298); assay type: functional;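 note: antagonist potency against agonist-stimulated cAMP production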
Nonstructural protein 1 = Nonstructural protein 1 (Influenza A virus, UniProt Q194T2); assay type: functional, Influenza A virus (A/California/07/2009(H1N1))
Vero = assay: cells; assay type: functional; conditions: Chlorocebus sabaeus
[16] = control 3'UTR Renilla luciferase suppression, dose response, counter-screen for Shn3 inhibitor project, cell-based, Clone20-Shn3RL, cherry-picked (AID 624133); assay type: functional
[17] = HepG2 cell cytotoxicity, dose response, cytotoxicity control for Shn3 inhibitor project, CellTiter-Glo, cherry-picked (AID 624134); assay type: functional, cell-based
[18] = Shn3 3'UTR reporter inhibitors, dose response, cell-based, Clone20 osteoblasts, firefly luciferase, cherry-picked (AID 624132); assay type: functional;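 note: firefly luciferase luminescence from reporter carrying the Shn3 3'UTR in osteoblasts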
INS1 = assay: beta cell apoptosis inhibitors, cytokine rescue, dose response, luminescence, retest (AID 449756); assay type: functional, cell-based; conditions: Rattus norvegicus;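 note: cell death triggered by IL-1 beta plus TNF-alpha plus IFN-gamma mixture; protective hits raise ATP signal compared with cytokine alone wells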
[19] = inhibitors of HIV Env-driven cell fusion, dose response, cherry-pick (AID 652057); assay type: functional, cell-based
[20] = ZM109 Env clade C HIV-1 fusion inhibitors, dose response, HeLa effector, CEM target cells, luciferase, cherry-pick (AID 652058); assay type: functional, cell-based
[21] = CEM21 lymphoblast cell cytotoxicity, dose response, cytotoxicity control for viral fusion inhibitor project, CellTiter-Glo luminescence, cherry-picked (AID 652042); assay type: functional, cell-based;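 note: potency for signal decrease meaning cytotoxicity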
[22] = microbe, parasite or virus in culture; assay type: functional; conditions: Mycobacterium tuberculosis
[23] = tested on: Streptococcus sp. 'group A'; assay: growth inhibition of control SK(-) GAS strain, dose response, counter-screen for streptokinase expression inhibitor project, luminescence, kanamycin, BacTiterGlo, confirmation (AID 1900); assay type: functional, organism-based
Streptococcus = assay: Group A Streptococcus viability loss, dose response, counter-screen for streptokinase expression inhibitor project, luminescence, BacTiterGlo (AID 1915); assay type: functional, organism-based;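 note: potency for reduction of bacterial viability or growth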
[24] = HepG2 cell cytotoxicity, dose response, cytotoxicity control, plate reader, cherry-pick, antagonist series (AID 743416); assay type: functional, cell-based
[25] = NIH:OVCAR-3 ovarian cancer cell cytotoxicity, dose response, PAX8 inhibitor project, plate reader, dry powder samples (AID 743044); assay type: functional, cell-based
Paired box protein Pax-8 = Paired box protein Pax-8 (Homo sapiens, UniProt Q06710); assay: inhibitors of PAX8-driven TPO luciferase reporter, dose response, RMG-I cells, cherry-pick (AID 687027); assay type: functional, cell-based;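 note: luciferase reporter driven by Pax8 target thyroperoxidase promoter measured by SteadyGlo luminescence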
[26] = cytotoxicity in OVCAR8 ovarian cancer cells, dose response, PAX8 project, cell-based, plate reader, dry powder samples (AID 743197); assay type: functional; conditions: OVCAR-8
[27] = P. falciparum 3D7-ScDHODH growth inhibitors, dose response, SYBR Green, dry powder samples (AID 1159570); assay type: functional, cell-based;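 note: parasite growth measured after 72 hours of compound exposure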
[28] = P. falciparum ATP4 D1247Y mutant growth inhibitors, dose response, NITD609-resistant line, SYBR Green, dry powder (AID 1159571); assay type: functional, cell-based;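 note: parasites synchronized at ring stage by sorbitol before testing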
[29] = P. falciparum Dd2 growth inhibitors, dose response, SYBR Green, cherry-picked samples (AID 1159567); assay type: functional, cell-based
[30] = P. falciparum Dd2 growth inhibitors, dose response, SYBR Green, dry powder samples (AID 1159566); assay type: functional, cell-based;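 note: potency for growth inhibition with lower SYBR green DNA signal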

O=C(NC(=S)Nc1nc(-c2ccc(Br)cc2)cs1)c1ccco1
EC50 [1]: 7.39 µM (active)

Cc1nc(SC2CCOC2=O)c2c(C)c(C)sc2n1 (stereo unspecified)
IC50 (Major prion protein): 1.93 µM (active) | IC50 (cells): > 138 µM (inactive)

CC(C)CCNC(=O)Cn1c2c(c(-c3ccccc3Cl)cc1=O)CCC2
CC50 [2]: > 40 µM (active)

COc1ccc(S(=O)(=O)n2ccc(-c3ccc(OCCN(C)c4ccccn4)cc3)n2)cc1
AC50 [3]: 6.63 µM (active) | AC50 [4]: 1.81 µM (active) | IC50 (Protein skinhead-1): > 100 µM (inactive)

COc1ccc(OCC(=O)Nc2nccs2)cc1
AC50 [5]: 5.99 µM (active) | AC50 [6]: 5.35 µM (active) | AC50 (HEK293): 4.63 µM (active)

OCCCNc1[nH]cnc2c3ccccc3nc1-2
CC50 [2]: > 40 µM (active)

O=c1[nH]c(=O)c2nc3c4ccccc4c4ccccc4c3nc2[nH]1
IC50 [7]: > 66.6 µM (inactive) | IC50 [8]: 2.56 µM (active)

Cc1ccc(-c2nc(-c3ccccc3)no2)cc1
EC50 [9]: 1.67 µM (active) | EC50 (HT-1080): > 50 µM (not active)

O=C(NC(=S)Nc1ccccc1)c1cc(-c2ccccc2)nc2ccccc12
EC50 [1]: 0.38 µM (active)

COc1ccc2cc(C(=O)C3CCCN(C(=O)c4cccnc4)C3)ccc2c1 (stereo unspecified)
EC50 (Kallikrein-7): 23.7 µM (inactive)

CCCOC(=O)Oc1ccc2c(=O)c(Oc3cc(C)cc(C)c3)coc2c1
EC50 (Kallikrein-7): 3.19 µM (active)

COc1cc(NC(=O)c2ccco2)c(OC)cc1NC(=O)CCC(=O)Nc1cc(C)ccc1C
EC50 (Kallikrein-7): 26.8 µM (inactive)

COC(=O)c1ccc(OCC(=O)Nc2nn(-c3ccccc3)nc2C(N)=O)cc1
IC50 [7]: > 66.6 µM (inactive) | IC50 [8]: 3.99 µM (active)

CCOc1ccc2c(ccc(/C=C/c3cc(C)c4cccnc4c3O)[n+]2C)c1
AC50 [10]: 0.276 µM (active) | IC50 [11]: 8.71 µM (active) | IC50 [12]: 11.7 µM (active) | IC50 [13]: 34.5 µM (active) | CC50 [14]: 95.9 µM (active) | IC50 [15]: > 64.5 µM (inactive) | IC50 (Melanocortin receptor 4): > 2.39 µM (active) | IC50 (Nonstructural protein 1): 0.676 µM (active) | CC50 (Vero): 13.1 µM (active)

CC(C)(C)n1ncc2c(=O)n(Cc3cccc(Cn4cnc5c(cnn5C(C)(C)C)c4=O)c3F)cnc21
AC50 [3]: 6.31 µM (active) | AC50 [16]: 0.84 µM (active) | AC50 [4]: 35.4 µM (active) | AC50 [17]: 19.4 µM (active) | AC50 [18]: 1.09 µM (active) | AC50 (INS1): 3.27 µM (active) | AC50 [19]: 17.9 µM (active) | AC50 [20]: 1.74 µM (active) | AC50 [21]: 35.2 µM (active)

Cc1cccc(/C=C2/SC(N/N=C3\CC4CCC3(C)C4(C)C)=NC2=O)c1 (stereo unspecified)
CC50 [22]: > 40 µM (active) | EC50 [23]: 1.83 µM (active) | EC50 [1]: 0.12 µM (active) | EC50 (Streptococcus): 1.3 µM (active)

COc1ccc2c(c1)CCC1(C)CC(=O)C(Br)=C21 (stereo unspecified)
IC50 (Major prion protein): 3.21 µM (active) | IC50 (cells): > 138 µM (inactive)

Cc1ccc(S(=O)(=O)N2[C@@H](CO)CO[C@H]2CC(=O)OCc2ccccc2)cc1
AC50 [24]: > 52 µM (inactive)

C[C@@H]1CN([C@H](C)CO)C(=O)c2cc(NC(=O)c3ccccc3)ccc2O[C@@H](C)CCCCO[C@@H]1CN(C)Cc1ccc(C(F)(F)F)cc1
AC50 [25]: 50.2 µM (active) | AC50 (Paired box protein Pax-8): 8.24 µM (active) | AC50 [26]: > 70 µM (inactive)

CO[C@H](CN(C)S(=O)(=O)c1ccc(Cl)cc1)[C@@H](C)CN([C@@H](C)CO)S(=O)(=O)c1cccc(Cl)c1
AC50 [3]: 25.1 µM (active) | AC50 [19]: 2.93 µM (active) | AC50 [20]: 5.98 µM (active) | AC50 [21]: 39.7 µM (active)

COC(=O)[C@H](CC1(c2cn(S(=O)(=O)CC[Si](C)(C)C)c3ccccc23)C(=O)Nc2ccccc21)NC(=O)OC(C)(C)C (stereo partly specified)
IC50 (Major prion protein): 11.7 µM (inactive) | IC50 (cells): > 138 µM (inactive)

O=C(CSc1nnc(SCc2ccccc2)s1)N/N=C/c1c[nH]c2ccccc12
IC50 [7]: > 66.6 µM (inactive) | IC50 [8]: 10.4 µM (active)

COc1ccc2c3c(n(C)c2c1)[C@@H](CO)N(C(=O)C1CCCC1)CC31CN(C(=O)Nc2cccc(F)c2)C1
AC50 [27]: 0.818 µM (active) | AC50 [28]: 1.24 µM (active) | AC50 [29]: 1.32 µM (active) | AC50 [30]: 1.88 µM (active)
